Test results published in PMC10487517, “Impacts of Halogen Substitutions on Bisphenol A Compounds Interaction with Human Serum Albumin: Exploring from Spectroscopic Techniques and Computer Simulations” (International Journal of Molecular Sciences, 2023).

How the values were obtained:
[1] = target: T1, HSA (Homo sapiens, UniProt P02768); assay: Three-dimensional fluorescence spectra of HSA with ligand; settings: [HSA] = [ligand] = 1.0 × 10^−6 M; for Peak 1 ∆λ: free HSA 62; for Peak 2 ∆λ: free HSA 109; for Peak 2 λex/λem: free HSA 225/334; for Peak 1 λex/λem: free HSA 279/341; for Peak 1 F: free HSA 368.7; for Peak 2 F: free HSA 801.7; for change of Stokes shift of peak 2: versus free HSA
T1 construct: HSA and Tris were obtained from Sigma-Aldrich, St. Louis, MI, USA; purchased Sigma-Aldrich
T1 sequence (P02768 25-609): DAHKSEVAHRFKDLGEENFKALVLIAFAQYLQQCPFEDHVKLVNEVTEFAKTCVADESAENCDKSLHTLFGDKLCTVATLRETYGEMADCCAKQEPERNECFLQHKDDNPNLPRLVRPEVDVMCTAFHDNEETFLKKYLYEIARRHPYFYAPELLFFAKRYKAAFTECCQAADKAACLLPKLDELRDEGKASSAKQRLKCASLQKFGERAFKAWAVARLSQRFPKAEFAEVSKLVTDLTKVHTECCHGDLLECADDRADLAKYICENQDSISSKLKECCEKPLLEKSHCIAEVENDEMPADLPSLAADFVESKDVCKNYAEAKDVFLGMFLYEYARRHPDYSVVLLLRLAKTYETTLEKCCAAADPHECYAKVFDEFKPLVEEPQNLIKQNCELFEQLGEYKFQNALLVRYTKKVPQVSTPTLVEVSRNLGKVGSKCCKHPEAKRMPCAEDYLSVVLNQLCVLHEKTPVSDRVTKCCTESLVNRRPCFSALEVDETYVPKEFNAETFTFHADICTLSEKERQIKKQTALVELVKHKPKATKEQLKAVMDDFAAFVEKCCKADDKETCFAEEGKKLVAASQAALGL

[2] = target: T1, HSA; assay: Site-specific competitive experiment (fluorescence) with site markers; format: binding; settings: Ka, with Digoxigenin, [Ligands]/[Site Marker] 1:1; room temperature; n = 3
[3] = target: T1, HSA; assay: Fluorescence quenching / fluorescence–thermodynamic experiment with HSA; format: binding; settings: for Ksv: Stern–Volmer quenching constant, Tris-HCl pH 7.4; for Kd: Ka, binding constant, double logarithmic equation; for ∆H: enthalpy change of binding; for ∆H / ∆S: from Ka at 298, 303, 310 K; for ∆S: entropy change of binding; for fluorescence quenching mechanism: from Kq and trend of Ksv with temperature; for main binding forces: from signs of ΔH and ΔS
Procedure: Prior to taking steady-state fluorescence measurements, the HSA and ligand mixture solution was given 2 min to equilibrate.
To account for the ligand concentration in the study system, which was much lower than the 10^−5 M level, the inner-filter effect of the ligand was neglected. The Stern–Volmer equation and double logarithmic equation (Equations (1)–(3)) were used to analyze the data of fluorescence spectra. Thermodynamic parameters were obtained using Equation (4) to determine the driving forces in the binding process. […] In addition, R and T are the gas constant at room temperature and the temperature in Kelvin, respectively.

[4] = target: T1, HSA; assay: Circular dichroism spectroscopy, HSA secondary structure (CONTINLL); settings: [HSA] = [ligand] = 1.0 × 10^−6 M; for β-Sheet: free HSA 7.7; for β-Turn: free HSA 14.1; for Random Coil: free HSA 26.9; for α-Helix: free HSA 51.4
Text: The concentration of HSA and the ligands was set as 1.0 × 10^−6 M. The instrumental parameters were set as follows: path length of 1 mm and scanning speed of 100 nm min^−1.

[5] = target: T1, HSA; assay: Site-specific competitive experiment (fluorescence) with site markers; format: binding; settings: for Kd: Ka, room temperature, n = 3; for primary binding site on HSA: site-marker competition
Procedure: The site-specific competitive experiment was conducted following the methodology described in the literature, using […], ibuprofen, and phenylbutazone as site-specific probes. First, a 1:1 complex of the site-specific probe with HSA was prepared in the buffer solution. […] This experiment was conducted under the same test conditions as the thermodynamic experiment, except at room temperature.

[6] = target: T1, HSA; settings: level of the Ka value; cited from earlier work
[7] = 298 K, quenching rate constant, Kq=Ksv/τ0, τ0 6.30 ns
[8] = 303 K, quenching rate constant, Kq=Ksv/τ0, τ0 6.30 ns
[9] = 310 K, quenching rate constant, Kq=Ksv/τ0, τ0 6.30 ns
[10] = compared with maximum scattering collision quenching rate constant for dynamic quenching
[11] = Control group, [Ligands]/[Site Marker] 1:0
[12] = with Ibuprofen, [Ligands]/[Site Marker] 1:1
[13] = with Phenylbutazone, [Ligands]/[Site Marker] 1:1

With `CC(C)(c1cc(Br)c(O)c(Br)c1)c1cc(Br)c(O)c(Br)c1` [TBBPA, tetrabromobisphenol A] the “Peak 1 ∆λ” value [1] was 59 nm, the “Peak 2 ∆λ” value [1] was 103 nm and the “Peak 2 λex/λem” value [1] was 225/328. The “Peak 1 λex/λem” value [1] was 279/338, the “Peak 1 F” value [1] was 254.0 and the “Peak 2 F” value [1] was 575.5. For the same compound, the “change of Stokes shift of peak 2” value [1] was 6 nm, the Kd [2] was 743 nM and the “∆G” value ([3]; 298 K) was -7.906 kcal/mol. For the same compound, the Kq [3, 7] was 1.210 10^14 M^−1·s^−1, the “∆G” value ([3]; 303 K) was -8.114 kcal/mol and the Ksv ([3]; 303 K) was 7.534 10^5 M^−1. For the same compound, the Kq [3, 8] was 1.211 10^14 M^−1·s^−1, the “∆G” value ([3]; 310 K) was -8.408 kcal/mol and the Ksv ([3]; 310 K) was 7.627 10^5 M^−1. For the same compound, the Kq [3, 9] was 1.226 10^14 M^−1·s^−1, the Kd ([3]; 298 K) was 1600 nM and the Kd ([3]; 303 K) was 1390 nM. The Kd ([3]; 310 K) was 1180 nM, the Kq [3, 10] was “greater than 2.0 × 10^10 M^−1·s^−1” and the “∆H” value [3] was 4.587 kcal/mol. For the same compound, the “∆S” value [3] was 175.4 J·moL^−1·K^−1, the fluorescence quenching mechanism [3] was “static quenching mechanism” and the main binding forces [3] was “hydrophobic interactions”. For the same compound, the β-Sheet [4] was 7.3%, the β-Turn [4] was 14.7% and the “Random Coil” value [4] was 29.8%. It also gave a α-Helix [4] of 48.2%, a Kd [5, 11] of 734 nM and a Kd [5, 12] of 740 nM. For the same compound, the Kd [5, 13] was 1230 nM and the “primary binding site on HSA” value [5] was “site I”.

For `CC(C)(c1ccc(O)cc1)c1ccc(O)cc1` [BPA, Bisphenol A], the Ka [6] is given as ~1000 M⁻¹.

In the case of `CC(C)(c1cc(Cl)c(O)c(Cl)c1)c1cc(Cl)c(O)c(Cl)c1` [TCBPA, tetrachlorobisphenol A], the “Peak 1 ∆λ” value [1] is reported as 61 nm, the “Peak 2 ∆λ” value [1] is reported as 108 nm and the “Peak 2 λex/λem” value [1] is reported as 226/334. For the same compound, the “Peak 1 λex/λem” value [1] was 279/340, the “Peak 1 F” value [1] was 323.4 and the “Peak 2 F” value [1] was 692.6. For the same compound, the “change of Stokes shift of peak 2” value [1] was 1 nm, the Kd [2] was 1280 nM and the “∆G” value ([3]; 298 K) was -7.187 kcal/mol. The Kq [3, 7] was 0.2135 10^14 M^−1·s^−1, the “∆G” value ([3]; 303 K) was -7.084 kcal/mol and the Ksv ([3]; 303 K) was 1.296 10^5 M^−1. The Kq [3, 8] was 0.2083 10^14 M^−1·s^−1, the “∆G” value ([3]; 310 K) was -6.943 kcal/mol and the Ksv ([3]; 310 K) was 1.289 10^5 M^−1. For the same compound, the Kq [3, 9] was 0.2073 10^14 M^−1·s^−1, the Kd ([3]; 298 K) was 4900 nM and the Kd ([3]; 303 K) was 9080 nM. For the same compound, the Kd ([3]; 310 K) was 11900 nM, the Kq [3, 10] was “greater than 2.0 × 10^10 M^−1·s^−1” and the “∆H” value [3] was -13.23 kcal/mol. The “∆S” value [3] was −84.86 J·moL^−1·K^−1, the fluorescence quenching mechanism [3] was “mixed quenching mechanism” and the main binding forces [3] was “hydrogen bonds and van der Waals forces”. The β-Sheet [4] was 8.2%, the β-Turn [4] was 14.2% and the “Random Coil” value [4] was 27.2%. It also gave a α-Helix [4] of 50.4%, a Kd [5, 11] of 1370 nM and a Kd [5, 12] of 1320 nM. For the same compound, the Kd [5, 13] was 3130 nM and the “primary binding site on HSA” value [5] was “site I”.
